# In patent publication US20130203789A1, “Novel Inhibitors of LYN Kinase and Methods Using Same” (VASSA INFORMATICS, priority 2012, published 2013):
# Assays:
# [1] = test system: mesenchymal breast cancer lines; settings: at concentrations that inhibit LYN kinase activity; cited from earlier work
# [2] = test system: mesenchymal breast cancer lines; settings: at concentrations that inhibit LYN kinase activity; cited from earlier work; remark: listed apart in the source
# [3] = test system: LYN; settings: BT549 cells, Western blot; cited from earlier work
# [4] = target: T1, Lyn(h) (Homo sapiens, UniProt P07948); test: Millipore kinase profiling, Lyn; assay type: biochemical; settings: 100 μM concentration
# T1 construct: purchased Millipore (Dundee UK), contract testing service
# T1 sequence (P07948 1-491 isoform P07948-2): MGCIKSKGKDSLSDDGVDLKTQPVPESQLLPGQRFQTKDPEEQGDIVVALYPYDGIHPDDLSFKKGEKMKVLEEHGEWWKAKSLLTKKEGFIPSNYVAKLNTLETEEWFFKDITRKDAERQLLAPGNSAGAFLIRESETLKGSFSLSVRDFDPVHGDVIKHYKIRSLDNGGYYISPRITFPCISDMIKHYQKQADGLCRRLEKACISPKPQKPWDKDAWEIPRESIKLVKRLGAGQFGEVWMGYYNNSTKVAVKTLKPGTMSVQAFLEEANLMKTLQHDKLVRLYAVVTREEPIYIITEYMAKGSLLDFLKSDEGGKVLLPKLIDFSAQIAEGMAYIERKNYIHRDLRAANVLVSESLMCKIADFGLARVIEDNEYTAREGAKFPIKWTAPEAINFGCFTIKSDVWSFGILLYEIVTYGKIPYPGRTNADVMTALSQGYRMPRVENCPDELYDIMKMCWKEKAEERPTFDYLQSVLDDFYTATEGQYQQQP
# Procedure: (§1) The three compounds identified in Example 1 were tested for kinase activity at Millipore (Dundee UK). The compounds were shipped as 10 mM stocks in DMSO as per Millipore testing standards. The testing consisted of two initial phases:
# (§2) (a) Profiling against a set of approximately 60 kinases, selected as representative of all kinases and current kinase drug targets, to determine the selectivity of the compounds; and, (b) IC50 testing againstr EGFR, the kinase target of the initial search template molecule.
# [5] = target: T2, Pim-1(h) (Homo sapiens, UniProt P11309); test: Millipore kinase profiling, Pim-1; assay type: biochemical; settings: 100 μM concentration
# T2 construct: purchased Millipore (Dundee UK), contract testing service
# T2 sequence (P11309 whole entry): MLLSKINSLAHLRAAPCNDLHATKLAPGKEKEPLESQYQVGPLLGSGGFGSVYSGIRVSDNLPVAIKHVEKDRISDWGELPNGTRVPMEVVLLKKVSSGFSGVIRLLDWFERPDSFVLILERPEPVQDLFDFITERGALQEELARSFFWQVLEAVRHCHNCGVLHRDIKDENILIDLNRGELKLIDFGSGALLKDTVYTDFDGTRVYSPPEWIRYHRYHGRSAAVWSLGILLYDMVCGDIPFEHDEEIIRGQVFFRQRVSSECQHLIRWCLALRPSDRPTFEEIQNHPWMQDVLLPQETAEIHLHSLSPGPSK
# Procedure: as §1, §2
# [6] = target: T3, WNK3(h) (Homo sapiens, UniProt Q9BYP7); test: Millipore kinase profiling, WNK3; assay type: biochemical; settings: 100 μM concentration
# T3 construct: purchased Millipore (Dundee UK), contract testing service
# T3 sequence (Q9BYP7 whole entry): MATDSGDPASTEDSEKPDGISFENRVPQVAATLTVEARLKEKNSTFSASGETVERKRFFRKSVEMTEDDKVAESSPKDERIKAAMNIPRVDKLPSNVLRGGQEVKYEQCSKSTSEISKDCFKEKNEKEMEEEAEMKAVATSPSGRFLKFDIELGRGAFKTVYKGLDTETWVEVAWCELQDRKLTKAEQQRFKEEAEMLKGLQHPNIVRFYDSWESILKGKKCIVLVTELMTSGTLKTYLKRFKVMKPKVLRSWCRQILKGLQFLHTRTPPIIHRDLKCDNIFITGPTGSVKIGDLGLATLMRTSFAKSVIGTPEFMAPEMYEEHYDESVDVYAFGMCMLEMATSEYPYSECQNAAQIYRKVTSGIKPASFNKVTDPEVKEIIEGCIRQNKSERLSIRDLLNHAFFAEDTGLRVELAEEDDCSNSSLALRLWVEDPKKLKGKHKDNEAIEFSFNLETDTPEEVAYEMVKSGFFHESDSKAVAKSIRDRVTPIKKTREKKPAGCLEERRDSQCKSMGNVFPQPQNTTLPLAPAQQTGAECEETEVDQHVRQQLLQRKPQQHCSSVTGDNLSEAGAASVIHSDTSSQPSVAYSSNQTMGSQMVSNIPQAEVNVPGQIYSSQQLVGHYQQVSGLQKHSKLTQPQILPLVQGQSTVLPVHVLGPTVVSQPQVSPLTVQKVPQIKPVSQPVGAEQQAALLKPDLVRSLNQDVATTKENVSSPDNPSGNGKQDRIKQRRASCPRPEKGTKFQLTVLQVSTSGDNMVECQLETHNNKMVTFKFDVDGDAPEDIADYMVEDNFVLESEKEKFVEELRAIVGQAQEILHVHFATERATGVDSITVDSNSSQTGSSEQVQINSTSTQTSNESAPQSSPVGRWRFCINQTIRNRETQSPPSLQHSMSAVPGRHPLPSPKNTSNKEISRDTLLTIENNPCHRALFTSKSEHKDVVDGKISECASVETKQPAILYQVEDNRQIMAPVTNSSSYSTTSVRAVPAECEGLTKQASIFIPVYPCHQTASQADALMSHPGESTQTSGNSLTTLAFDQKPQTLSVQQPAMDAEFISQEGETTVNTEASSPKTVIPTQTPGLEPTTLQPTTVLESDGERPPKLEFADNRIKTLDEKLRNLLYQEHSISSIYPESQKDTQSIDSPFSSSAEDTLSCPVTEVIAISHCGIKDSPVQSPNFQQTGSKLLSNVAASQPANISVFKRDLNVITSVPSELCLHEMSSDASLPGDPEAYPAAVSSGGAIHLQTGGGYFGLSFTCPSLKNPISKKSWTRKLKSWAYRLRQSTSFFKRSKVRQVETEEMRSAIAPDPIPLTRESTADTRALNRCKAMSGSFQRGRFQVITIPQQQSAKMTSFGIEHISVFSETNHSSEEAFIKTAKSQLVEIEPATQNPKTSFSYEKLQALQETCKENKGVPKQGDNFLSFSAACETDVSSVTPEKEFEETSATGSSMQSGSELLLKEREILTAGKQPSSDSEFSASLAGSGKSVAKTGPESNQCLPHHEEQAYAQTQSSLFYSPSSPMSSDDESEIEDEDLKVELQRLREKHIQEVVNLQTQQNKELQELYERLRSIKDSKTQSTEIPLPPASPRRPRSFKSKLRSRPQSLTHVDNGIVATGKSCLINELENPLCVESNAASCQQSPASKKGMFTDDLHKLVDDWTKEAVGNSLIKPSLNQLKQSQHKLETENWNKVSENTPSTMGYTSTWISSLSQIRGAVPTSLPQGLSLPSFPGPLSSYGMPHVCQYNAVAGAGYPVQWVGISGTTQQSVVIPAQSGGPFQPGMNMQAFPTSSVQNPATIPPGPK
# Procedure: as §1, §2
# [7] = target: CamK1 (Homo sapiens, UniProt Q14012); test: Kinase profiling, CamK1; assay type: biochemical; settings: 100 μM concentration
# Procedure: (§3) FIG. 9 is a schematic kinome tree illustrating the evolutionary relationships between 299 kinases. The inhibition of 68 representative kinases by VI301 at 100 μM concentration was evaluated.
# as §1, §2
# [8] = target: Abl kinase (BCR-Abl) (Homo sapiens, UniProt P00519); test: Kinase profiling, Abl; assay type: biochemical; settings: 100 μM concentration
# Abl kinase (BCR-Abl), sequence (P00519 27-1130 limits assumed): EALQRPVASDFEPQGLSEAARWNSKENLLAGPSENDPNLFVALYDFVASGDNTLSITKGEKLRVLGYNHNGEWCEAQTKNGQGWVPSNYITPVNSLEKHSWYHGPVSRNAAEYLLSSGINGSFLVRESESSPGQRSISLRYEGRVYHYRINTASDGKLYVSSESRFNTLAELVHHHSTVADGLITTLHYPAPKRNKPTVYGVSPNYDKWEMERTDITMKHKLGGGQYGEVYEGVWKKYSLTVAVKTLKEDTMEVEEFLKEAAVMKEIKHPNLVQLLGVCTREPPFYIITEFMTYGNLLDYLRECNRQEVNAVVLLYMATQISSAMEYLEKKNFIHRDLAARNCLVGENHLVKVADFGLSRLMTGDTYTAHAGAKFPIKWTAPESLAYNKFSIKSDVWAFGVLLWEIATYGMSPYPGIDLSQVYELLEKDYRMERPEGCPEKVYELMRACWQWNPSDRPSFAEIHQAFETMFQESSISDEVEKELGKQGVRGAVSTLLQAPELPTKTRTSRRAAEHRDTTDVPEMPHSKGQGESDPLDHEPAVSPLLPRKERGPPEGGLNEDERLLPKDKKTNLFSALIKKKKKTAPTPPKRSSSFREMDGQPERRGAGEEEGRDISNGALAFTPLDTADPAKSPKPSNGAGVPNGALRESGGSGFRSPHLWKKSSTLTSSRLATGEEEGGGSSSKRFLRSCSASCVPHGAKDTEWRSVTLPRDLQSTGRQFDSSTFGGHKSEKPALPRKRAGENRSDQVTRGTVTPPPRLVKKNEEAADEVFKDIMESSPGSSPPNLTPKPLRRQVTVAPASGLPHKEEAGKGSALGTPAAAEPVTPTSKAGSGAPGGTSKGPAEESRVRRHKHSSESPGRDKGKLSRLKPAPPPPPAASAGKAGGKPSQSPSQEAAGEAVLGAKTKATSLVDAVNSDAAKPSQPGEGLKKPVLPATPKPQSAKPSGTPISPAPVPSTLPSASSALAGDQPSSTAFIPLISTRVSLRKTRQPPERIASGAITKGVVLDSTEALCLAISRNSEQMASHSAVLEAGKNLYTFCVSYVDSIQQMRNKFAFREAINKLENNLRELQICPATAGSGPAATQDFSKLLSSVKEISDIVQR
# Procedure: as §3, §1, §2
Structure (SMILES),cell invasion [1],cell proliferation [2],phosphorylated (activated) LYN [3],inhibition at 100 µM [4],inhibition of LYN kinase (in words) [4],inhibition at 100 µM [5],inhibition at 100 µM [6],inhibition at 100 µM [7],inhibition at 100 µM [8]
"Cc1nc(Nc2ncc(C(=O)Nc3c(C)cccc3Cl)s2)cc(N2CCN(CCO)CC2)n1 [Dasatinib, N-(2-chloro-6-methylphenyl)-2-[[6-[4-(2-hydroxyethyl)-1-piperazinyl]-2-methyl-4-pyrimidinyl]amino]-5-thiazole carboxamide]",blocked invasion,not proliferation,decreased phosphorylated (activated) LYN,,,,,,
"Cc1nn2c(ncc3c(=O)n(-c4ccccc4)ccc32)c1-c1ccccc1 [VI301, 2-methyl-3,7-diphenylpyrazolo[1,5-a]pyrido[3,4-e]pyrimidin-6(7H)-one]",,,,95%,good inhibition,12%,3%,26%,106%
